Test results as given in patent US9714249B2 (Novartis AG, priority 2013, dated 2017).

Legend:
MV-4-11 cells = test: Cell growth inhibition assay (CellTiter-Glo), MV-4-11; format: cell-based, human; details: MV-4-11, 4 days; for GI50: half-maximal growth inhibition; for MV-4-11 TGI: total growth inhibition
Protocol: (§1) The human leukemia cell lines MV-4-11, THP-1 and K-562 were employed to characterize the effect of BET inhibitors on cellular proliferation and viability. Cells were obtained from the American Type Culture Collection (ATCC) and cultured at 37° C. in a humidified 5% CO2 incubator in the following media: MV-4-11: DMEM high glucose (Animed #1-26F01-I), 10% FCS (Animed #2-01F26-I), 4 mM L-Glutamine (Animed #5-10K50), 1 mM Sodium Pyruvate (Animed # G03625P), 1× Penicillin-Streptomycin (Animed # F12478P); K-562: Iscove's MEM (Animed #1-28F16-I), 10% FCS (Animed #2-01F26-I), 4 mM L-Glutamine (Animed #5-10K50), 1× Penicillin-Streptomycin (Animed # F12478P); THP-1: RPMI-1640 (Animed #1-41F01-I), 10% FCS (Animed #2-01F26-I), 2 mM L-Glutamine (Animed #5-10K50), 10 mM HEPES (Animed #5-31F100), 1 mM Sodium Pyruvate (Animed # G03625P), 1× Penicillin-Streptomycin (Animed # F12478P). The AML lines MV-4-11 and THP-1 are very sensitive to BET inhibitors and show massive cell death upon BET inhibition (Zuber et al., Nature, 478 (2011), 524-8). Compound-mediated suppression of cell proliferation/viability was assessed by quantification of cellular ATP levels using the CellTiter-Glo (CTG) reagent (Promega). Briefly, cells were seeded in 20 μl fresh medium into 384-well plates, followed by addition of 5 μl medium containing compound dilutions at 5-fold their final intended concentration. Dose-response effects were assessed by 3-fold serial dilutions of the test compound, starting at 10 μM. Following incubation of the cells for 4 days at 37° C. and 5% CO2, the effect of inhibitors on cell viability was quantified following addition of 20 μl CTG and luminescence quantification (integration time: 100 ms) as per vendor manual, using a correspondingly equipped Tecan M200 multi-mode platereader (TECAN, Switzerland). For data analysis, the assay background value determined in wells containing medium, but no cells, was subtracted from all data points. To enable differentiation of cytotoxic from cytostatic compounds, the number of viable cells is assessed relative to that observed at the time of compound addition using a separate cell plate (day 0). The effect of a particular test compound concentration on cell proliferation/viability is expressed as percentage of the background- and day 0-corrected luminescence reading obtained for cells treated with vehicle only (DMSO, 0.1% final concentration), which is set as 100%, whereas that luminescence reading for wells containing medium is set as −100%. Compound concentrations leading to half-maximal (1050) and total growth inhibition (TGI) were determined using standard four parameter curve fitting.

THP-1 cells = test: Cell growth inhibition assay (CellTiter-Glo), THP-1; format: cell-based, human; details: THP-1, 4 days; for GI50: half-maximal growth inhibition; for THP-1 TGI: total growth inhibition
Protocol: as §1

BRD4 (His-Brd4(44-477)) = BRD4 (His-Brd4(44-477)) (Homo sapiens (Human), UniProt O60885); test: TR-FRET in-vitro binding assay for BRD4; details: acetyl-histone H4 peptide
Protocol: All assays were performed in 384 well microtiter plates. Each assay plate contained 8-point serial dilutions for 40 test compounds, plus 16 high- and 16 low controls. Liquid handling and incubation steps were done on an Innovadyne Nanodrop Express equipped with a robotic arm (Thermo CatX, Perkin Elmer/Caliper Twister II) and an incubator (Liconic STX40, Thermo Cytomat 2C450). The assay plates were prepared by addition of 50 nl per well of compound solution in 90% DMSO HummingBird nanodispenser (Zinsser Analytic). […] Reactions were incubated at 30° C. for 35 minutes. […] After 35 minutes incubation at 30° C., plates were measured in a Perkin Elmer EnVision multilabel reader.
(§2) Test compounds were dissolved in DMSO (10 mM) and transferred into 1.4 mL flat bottom or V-shaped Matrix tubes carrying a unique 2D matrix. The stock solutions were stored at […] if not used immediately. For the test procedure the vials were defrosted and identified by a scanner whereby a working sheet was generated that guided the subsequent working steps. Compound dilutions were made in 96 well plates. This format enabled the assay of maximally 40 individual test compounds at 8 concentrations (single points) including 4 reference compounds, if desired (known BET inhibitors from the prior art, for this and other assays of the type disclosed herein). The dilution protocol included the production of “pre-dilution plates”, “master plates” and “assay plates”.
(§3) Pre-dilution plates: 96 polypropylene well plates were used as pre-dilution plates. A total of 4 pre-dilution plates were prepared including 10 test compounds each on the plate positions A1-A10, one standard compound at A11 and one DMSO control at A12. All dilution steps were done on a HamiltonSTAR robot. […] These plates were used directly for the assay which was performed in a total volume of 13.55 μL. […] Cell Growth Inhibition Assay

[1] = target: CREBBP bromodomain (His-CREBBP (1081-1197)) (Homo sapiens (Human), UniProt Q92793); test: AlphaScreen in-vitro binding assay for CREBBP; details: acetyl-histone H4 peptide
Sequence of CREBBP bromodomain (His-CREBBP (1081-1197)) (Q92793 1081-1197): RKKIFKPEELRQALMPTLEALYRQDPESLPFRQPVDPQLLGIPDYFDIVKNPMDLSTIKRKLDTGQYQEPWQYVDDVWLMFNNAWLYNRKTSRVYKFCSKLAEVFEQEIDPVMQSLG
Protocol: In order to assess bromodomain selectivity, we set up a binding assay using the bromodomain encoded by the CREBBP gene. […] Reactions were incubated at 30° C. for 35 minutes. Subsequently 4.5 μl per well detection mix (50 mM HEPES, pH 7.5, 0.005% Tween20, 0.02% BSA, 150 mM NaCl, 45 μg/ml Ni-chelate acceptor beads, 45 μg/ml streptavidin-donor beads) (Perkin Elmer)) were added. After 60 minutes incubation at room temperature, plates were measured in a Perkin Elmer EnVision multilabel reader. IC50 values were determined from percent inhibition values at different compound concentrations by non-linear regression analysis.
as §2, §3

GI50 (MV-4-11 cells; Homo sapiens, MV4-11, 96 h) [µM] | GI50 (THP-1 cells; Homo sapiens, 96 h) [µM] | IC50 (BRD4 (His-Brd4(44-477))) [µM] | IC50 [1] [µM] | Compound | MV-4-11 TGI (MV-4-11 cells) [µM] | THP-1 TGI (THP-1 cells) [µM] | GI50 (MV-4-11 cells) [µM] | GI50 (THP-1 cells) [µM]
0.0246 | 0.0449 | 0.028 | 1.4 | Cc1cc(N2C(=O)c3c(C4CC4)nn(C)c3C2c2ccc(Cl)cc2)cn(C)c1=O (stereo not shown) [Example 1, 6-(4-chlorophenyl)-3-cyclopropyl-5-(1,5-dimethyl-6-oxo-1,6-dihydropyridin-3-yl)-1-methyl-5,6-dihydropyrrolo[3,4-c]pyrazol-4(1H)-one] | 0.0412 | 0.104 |  | 
0.122 | 0.219 | 0.1 | 5.1 | COc1ncc(-n2nc3c(c2C)C(=O)N(c2cc(C)c(=O)n(C)c2)C3c2ccc(Cl)cc2)c(OC)n1 (stereo not shown) [Example 14, 6-(4-chlorophenyl)-2-(2,4-dimethoxypyrimidin-5-yl)-5-(1,5-dimethyl-6-oxo-1,6-dihydropyridin-3-yl)-3-methyl-5,6-dihydropyrrolo[3,4-c]pyrazol-4(2H)-one] | 0.203 | 0.352 |  | 
0.0493 | 0.11 | 0.16 | 2.2 | Cc1[nH]nc2c1C(=O)N(c1cc(Cl)c(=O)n(C)c1)[C@@H]2c1ccc(Cl)cc1 [Example 28, (R)-5-(5-chloro-1-methyl-6-oxo-1,6-dihydropyridin-3-yl)-6-(4-chlorophenyl)-3-methyl-5,6-dihydropyrrolo[3,4-c]pyrazol-4(2H)-one] | 0.0864 | 0.2015 |  | 
0.027 | 0.0724 | 0.056 | 1.3 | COc1ncccc1-n1nc2c(c1C)C(=O)N(c1cc(C)c(=O)n(C)c1)C2c1ccc(Cl)cc1 (stereo not shown) [Example 17b, 6-(4-chlorophenyl)-5-(1,5-dimethyl-6-oxo-1,6-dihydropyridin-3-yl)-2-(2-methoxypyridin-3-yl)-3-methyl-5,6-dihydropyrrolo[3,4-c]pyrazol-4(2H)-one] | 0.0343 | 0.117 |  | 
0.0495 | 0.0874 | 0.14 | 2.9 | Cc1cc(N2C(=O)c3c(C4CC4)nn(-c4ccnn4C)c3[C@H]2c2ccc(Cl)cc2)cn(C)c1=O [Example 22, (R)-6-(4-chlorophenyl)-3-cyclopropyl-5-(1,5-dimethyl-6-oxo-1,6-dihydropyridin-3-yl)-1-(1-methyl-1H-pyrazol-5-yl)-5,6-dihydropyrrolo[3,4-c]pyrazol-4(1H)-one] | 0.08865 | 0.165 |  | 
0.0538 | 0.101 | 0.096 | 5 | Cc1cc(N2C(=O)c3c(C4CC4)nn(-c4ccnn4C)c3C2c2ccc(Cl)cc2)cn(C)c1=O (stereo not shown) [Example 5, 6-(4-chlorophenyl)-3-cyclopropyl-5-(1,5-dimethyl-6-oxo-1,6-dihydropyridin-3-yl)-1-(1-methyl-1H-pyrazol-5-yl)-5,6-dihydropyrrolo[3,4-c]pyrazol-4(1H)-one] | 0.1 | 0.179 |  | 
0.0169 | 0.044 | 0.041 | 1.3 | CCOc1ncccc1-n1nc2c(c1C)C(=O)N(c1cc(C)c(=O)n(C)c1)C2c1ccc(Cl)cc1 (stereo not shown) [Example 18b, 6-(4-chlorophenyl)-5-(1,5-dimethyl-6-oxo-1,6-dihydropyridin-3-yl)-2-(2-ethoxypyridin-3-yl)-3-methyl-5,6-dihydropyrrolo[3,4-c]pyrazol-4(2H)-one] | 0.0313 | 0.0931 |  | 
0.0191 | 0.0622 | 0.067 | 1.4 | Cc1nn(C(C)C)c2c1C(=O)N(c1cc(C)c(=O)n(C)c1)C2c1ccc(Cl)cc1 (stereo not shown) [Example 12, 6-(4-chlorophenyl)-5-(1,5-dimethyl-6-oxo-1,6-dihydropyridin-3-yl)-1-isopropyl-3-methyl-5,6-dihydropyrrolo[3,4-c]pyrazol-4(1H)-one] | 0.0374 | 0.112 |  | 

Further lines, the compound ahead of its results:

Compound | GI50 (MV-4-11 cells; Homo sapiens, MV4-11, 96 h) [µM] | GI50 (THP-1 cells; Homo sapiens, 96 h) [µM] | IC50 (BRD4 (His-Brd4(44-477))) [µM] | IC50 [1] [µM] | MV-4-11 TGI (MV-4-11 cells) [µM] | THP-1 TGI (THP-1 cells) [µM] | GI50 (MV-4-11 cells) [µM] | GI50 (THP-1 cells) [µM]
COCCn1nc(C2CC2)c2c1C(c1ccc(Cl)cc1)N(c1cc(C)c(=O)n(C)c1)C2=O (stereo not shown) [Example 4, 6-(4-chlorophenyl)-3-cyclopropyl-5-(1,5-dimethyl-6-oxo-1,6-dihydropyridin-3-yl)-1-(2-methoxyethyl)-5,6-dihydropyrrolo[3,4-c]pyrazol-4(1H)-one] | 0.0205 | 0.0456 | 0.014 | 3 | 0.0336 | 0.1 |  | 
Cc1cc(N2C(=O)c3c(C4CC4)nn(CCO)c3C2c2ccc(Cl)cc2)cn(C)c1=O (stereo not shown) [Example 3, 6-(4-chlorophenyl)-3-cyclopropyl-5-(1,5-dimethyl-6-oxo-1,6-dihydropyridin-3-yl)-1-(2-hydroxyethyl)-5,6-dihydropyrrolo[3,4-c]pyrazol-4(1H)-one] | 0.0375 | 0.0901 | 0.043 |  | 0.064 | 0.264 |  | 
CNC1=C(C(=N)C2CC2)C(=O)N(c2cc(C)c(=O)n(C)c2)[C@@H]1c1ccc(Cl)cc1 [Example 2] |  |  | 0.016 | 1.2 | 0.0303 | 0.0468 | 0.0154 | 0.0219
Cc1cc(N2C(=O)c3c(C4CC4)n[nH]c3[C@H]2c2ccc(Cl)cc2)cn(C)c1=O [Example 24, (R)-6-(4-chlorophenyl)-3-cyclopropyl-5-(1,5-dimethyl-6-oxo-1,6-dihydropyridin-3-yl)-5,6-dihydropyrrolo[3,4-c]pyrazol-4(1H)-one] | 0.0215 | 0.0297 | 0.073 | 1.7 | 0.03495 | 0.06225 |  | 
COc1ccc(-n2nc(C)c3c2C(c2ccc(Cl)cc2)N(c2cc(C)c(=O)n(C)c2)C3=O)cn1 (stereo not shown) [Example 20b, 6-(4-chlorophenyl)-5-(1,5-dimethyl-6-oxo-1,6-dihydropyridin-3-yl)-1-(6-methoxypyridin-3-yl)-3-methyl-5,6-dihydropyrrolo[3,4-c]pyrazol-4(1H)-one] | 0.0386 | 0.0931 | 0.056 |  | 0.0542 | 0.156 |  | 
